Measurements: BindingDB's records for doi:10.1016/j.ejmech.2021.113780 (Shandong University, 2021)

Experiment: Inhibition of capsid protein in HBV infected in human HepDES19 cells assessed as inhibition of viral replication incubated for 3 days by strand preferential qPCR analysis

SMILES | EC50 [µM]
CCOC(=O)C1=C(CN2CCC3(CC2)CNC3=O)NC(c2nccs2)=NC1c1ccc(F)cc1Br (centres undefined) | 1.17
CCOC(=O)C1=C(CN2CCC3(CCN(C(=O)OC(C)(C)C)C3)C2)NC(c2nccs2)=NC1c1ccc(F)cc1Br (centres undefined) | 4.83
CCOC(=O)C1=C(CN2CCC3(CC(=O)N(Cc4ccccc4)C3=O)C2)NC(c2nccs2)=NC1c1ccc(F)cc1Br (centres undefined) | 2.1
CCOC(=O)C1=C(CN2CCC3(CC2)CNC(=O)C3)NC(c2nccs2)=NC1c1ccc(F)cc1Br (centres undefined) | 3.8
CCOC(=O)C1=C(CN2CCC3(CCN(C(=O)OC(C)(C)C)C3)C2=O)NC(c2nccs2)=NC1c1ccc(F)cc1Br (centres undefined) | 5.17
CCOC(=O)C1=C(CN2CCC3(CC2)CC(=O)NC3=O)NC(c2nccs2)=NC1c1ccc(F)cc1Br (centres undefined) | 0.68
CCOC(=O)C1=C(CN2CCC3(CCNC3=O)CC2)NC(c2nccs2)=NC1c1ccc(F)cc1Br (centres undefined) | 3.43
CCOC(=O)C1=C(CN2CC3(CCN(C(=O)OC(C)(C)C)C3)CC2=O)NC(c2nccs2)=NC1c1ccc(F)cc1Br (centres undefined) | 10
CCOC(=O)C1=C(CN2CCC3(CC2)OCCO3)NC(c2nccs2)=NC1c1ccc(F)cc1Br (centres undefined) | 0.2
Nc1ccn([C@@H]2CS[C@H](CO)O2)c(=O)n1 [Epivir] | 0.37
CCOC(=O)C1=C(CN2CC3(CC2=O)CN(C(=O)OC(C)(C)C)C3)NC(c2nccs2)=NC1c1ccc(F)cc1Br (centres undefined) | 13.3
CCOC(=O)C1=C(CN2CCC3(CC2)CN(C(=O)OC(C)(C)C)C3)NC(c2nccs2)=NC1c1ccc(F)cc1Br (centres undefined) | 10.4
CCOC(=O)C1=C(CN2CCC3(C2)CN(C(=O)OC(C)(C)C)C3)NC(c2nccs2)=NC1c1ccc(F)cc1Br (centres undefined) | 8.83
CCOC(=O)C1=C(CN2CCC3(CNC(=O)C3)C2)NC(c2nccs2)=NC1c1ccc(F)cc1Br (centres undefined) | 2.6
